Experimental data as given in patent publication US20140357577A1, “HIV Membrane Fusion Inhibitors” (priority 2011, published 2014).
Starred links: 1 amine or outer side, 2 acyl side, 3 side chain; linkers in the order of their positions; H or OH if unused. *: point of attachment. Suc = O=C(CCC(=O)[*:2])[*:1]; Isovaleryl = CC(C)CC(=O)*; Pentanoyl = CCCCC(=O)*

Legend:
[1] = test system: HIV mutant virus strain HXB2D with mutation Q40H in the gp41 gene; experiment: Standard AVE, HXB2D site directed mutant Q40H; assay type: cell-based, HIV-1; conditions: fold change vs wild type strain HXB2D
Description: • Standard Anti-Viral-Experiment “AVE” (wild type HIV strain IIIB+HIV strain HXB2D side directed mutants V38A and Q40H)
The HIV-1 replication assay measures virus replication (HIV wild type virus strain 111B or HXB2D, or a HIV mutant virus strain HXB2D with mutation V38A or Q40H in the gp41 gene) as an induction of enhanced green fluorescent protein (EGFP) expression. The indicator MT4-LTR-EGFP cells contain an EGFP gene under the control of the HIV-1 LTR promoter sequence. Successful HIV-1 infection results in viral Tat protein expression and subsequent induction of EGFP expression. Compounds/peptides inhibiting HIV-1 infection are expected to reduce EGFP expression as compared to the untreated HIV-infected control.
Serial 4-fold dilutions of test compounds/peptides were mixed with HIV-1 (IIIB, HXB2D, or a HXB2D mutant virus (V38A or Q40H)) and MT4-LTR-EGFP cells and incubated at 37° C. After 3 days, the wells were examined for EGFP expression using an argon laser-scanning microscope. The effective compound/peptide concentration inhibiting 50% of the virus-induced EGFP signal (EC50) was determined by linear interpolation of the EGFP signal vs. logarithm of the compound concentration; (T20, C34 and Sifuvirtide were added as reference compounds). For the V38A and Q40H mutant viruses, results were reported as a fold change in EC50, as compared with a drug-susceptible wild type strain HXB2D, which forms the backbone of the mutant virus. • Standard AVE (50% Human Serum)

[2] = test system: HIV wild type virus strain IIIB; experiment: Standard Anti-Viral-Experiment (AVE), HIV-1 replication assay in MT4-LTR-EGFP cells, wild type IIIB; assay type: cell-based; conditions: 3 days, EGFP signal
Procedure, shortened: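 MT4-LTR-EGFP cells infected with HIV-1 IIIB, HXB2D or HXB2D gp41 mutants V38A/Q40H alongside serial 4-fold compound dilutions, 3 days at 37° C. EGFP read by laser-scanning microscopy; EC50 by linear interpolation against log concentration. Mutant results given as fold change in EC50 versus wild-type HXB2D.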

[3] = test system: HIV-IIIB + 50% HS; experiment: Standard AVE (50% Human Serum), HIV-1 replication assay in MT4-LTR-EGFP cells; assay type: cell-based; conditions: fold change vs EC50 in the assay without human serum
Procedure, shortened: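 MT4-LTR-EGFP cells infected with HIV-1 alongside 4-fold serial compound dilutions in 50% human serum, 3 days at 37 °C. EGFP read by laser-scanning microscopy; EC50 by linear interpolation against log concentration, reported as fold change versus EC50 without serum.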

Substance | HIV-HXB2D Q40H mutant (fold change in EC50) [1] | EC50 [2] | HIV-IIIB + 50% HS (Fold change in EC50) [3]
Isovaleryl-ANYAALIEALIRAAQEQQEKNEAALR-NH2 (SMILES CC[C@H](C)[C@H](NC(=O)[C@H](CC(C)C)NC(=O)[C@H](C)NC(=O)[C@H](CCC(=O)O)NC(=O)[C@@H](NC(=O)[C@H](CC(C)C)NC(=O)[C@H](C)NC(=O)[C@H](C)NC(=O)[C@H](Cc1ccc(O)cc1)NC(=O)[C@H](CC(N)=O)NC(=O)[C@H](C)NC(=O)CC(C)C)[C@@H](C)CC)C(=O)N[C@@H](CCCNC(=N)N)C(=O)N[C@@H](C)C(=O)N[C@@H](C)C(=O)N[C@@H](CCC(N)=O)C(=O)N[C@@H](CCC(=O)O)C(=O)N[C@@H](CCC(N)=O)C(=O)N[C@@H](CCC(N)=O)C(=O)N[C@@H](CCC(=O)O)C(=O)N[C@@H](CCCCN)C(=O)N[C@@H](CC(N)=O)C(=O)N[C@@H](CCC(=O)O)C(=O)N[C@@H](C)C(=O)N[C@@H](C)C(=O)N[C@@H](CC(C)C)C(=O)N[C@@H](CCCNC(=N)N)C(N)=O) [Peptide 17] | >37 | 24 nM | 0.9
Pentanoyl-ANYAALIEALIRAAQEQQEKNEAALR-NH2 (SMILES CCCCC(=O)N[C@@H](C)C(=O)N[C@@H](CC(N)=O)C(=O)N[C@@H](Cc1ccc(O)cc1)C(=O)N[C@@H](C)C(=O)N[C@@H](C)C(=O)N[C@@H](CC(C)C)C(=O)N[C@H](C(=O)N[C@@H](CCC(=O)O)C(=O)N[C@@H](C)C(=O)N[C@@H](CC(C)C)C(=O)N[C@H](C(=O)N[C@@H](CCCNC(=N)N)C(=O)N[C@@H](C)C(=O)N[C@@H](C)C(=O)N[C@@H](CCC(N)=O)C(=O)N[C@@H](CCC(=O)O)C(=O)N[C@@H](CCC(N)=O)C(=O)N[C@@H](CCC(N)=O)C(=O)N[C@@H](CCC(=O)O)C(=O)N[C@@H](CCCCN)C(=O)N[C@@H](CC(N)=O)C(=O)N[C@@H](CCC(=O)O)C(=O)N[C@@H](C)C(=O)N[C@@H](C)C(=O)N[C@@H](CC(C)C)C(=O)N[C@@H](CCCNC(=N)N)C(N)=O)[C@@H](C)CC)[C@@H](C)CC) [Peptide 14] | >67 | 13 nM | 2
Pentanoyl-ANYAALIEALIRKAQEQQEKNEAALR-NH2 (SMILES CCCCC(=O)N[C@@H](C)C(=O)N[C@@H](CC(N)=O)C(=O)N[C@@H](Cc1ccc(O)cc1)C(=O)N[C@@H](C)C(=O)N[C@@H](C)C(=O)N[C@@H](CC(C)C)C(=O)N[C@H](C(=O)N[C@@H](CCC(=O)O)C(=O)N[C@@H](C)C(=O)N[C@@H](CC(C)C)C(=O)N[C@H](C(=O)N[C@@H](CCCNC(=N)N)C(=O)N[C@@H](CCCCN)C(=O)N[C@@H](C)C(=O)N[C@@H](CCC(N)=O)C(=O)N[C@@H](CCC(=O)O)C(=O)N[C@@H](CCC(N)=O)C(=O)N[C@@H](CCC(N)=O)C(=O)N[C@@H](CCC(=O)O)C(=O)N[C@@H](CCCCN)C(=O)N[C@@H](CC(N)=O)C(=O)N[C@@H](CCC(=O)O)C(=O)N[C@@H](C)C(=O)N[C@@H](C)C(=O)N[C@@H](CC(C)C)C(=O)N[C@@H](CCCNC(=N)N)C(N)=O)[C@@H](C)CC)[C@@H](C)CC) [Peptide 16] | >108 | 8 nM | 0.8
Pentanoyl-ANYLALIEALIRAAQEQQEKNEAALR-NH2 (SMILES CCCCC(=O)N[C@@H](C)C(=O)N[C@@H](CC(N)=O)C(=O)N[C@@H](Cc1ccc(O)cc1)C(=O)N[C@@H](CC(C)C)C(=O)N[C@@H](C)C(=O)N[C@@H](CC(C)C)C(=O)N[C@H](C(=O)N[C@@H](CCC(=O)O)C(=O)N[C@@H](C)C(=O)N[C@@H](CC(C)C)C(=O)N[C@H](C(=O)N[C@@H](CCCNC(=N)N)C(=O)N[C@@H](C)C(=O)N[C@@H](C)C(=O)N[C@@H](CCC(N)=O)C(=O)N[C@@H](CCC(=O)O)C(=O)N[C@@H](CCC(N)=O)C(=O)N[C@@H](CCC(N)=O)C(=O)N[C@@H](CCC(=O)O)C(=O)N[C@@H](CCCCN)C(=O)N[C@@H](CC(N)=O)C(=O)N[C@@H](CCC(=O)O)C(=O)N[C@@H](C)C(=O)N[C@@H](C)C(=O)N[C@@H](CC(C)C)C(=O)N[C@@H](CCCNC(=N)N)C(N)=O)[C@@H](C)CC)[C@@H](C)CC) [Peptide 15] | 168 | 2 nM | 2
Pentanoyl-ECYLCLIEELIRKAQEQQEKNEAALR-NH2 (cysteine pairing not given here) [Peptide 92] | 3 | 1 nM | 5
Pentanoyl-ECYLRCIEELIRKAQEQQEKNEAALR-NH2 (cysteine pairing not given here) [Peptide 91] | 5 | 1 nM | 5
Pentanoyl-ENYLALIEELIRKAQEQQEKNEAALR-NH2 (SMILES CCCCC(=O)N[C@@H](CCC(=O)O)C(=O)N[C@@H](CC(N)=O)C(=O)N[C@@H](Cc1ccc(O)cc1)C(=O)N[C@@H](CC(C)C)C(=O)N[C@@H](C)C(=O)N[C@@H](CC(C)C)C(=O)N[C@H](C(=O)N[C@@H](CCC(=O)O)C(=O)N[C@@H](CCC(=O)O)C(=O)N[C@@H](CC(C)C)C(=O)N[C@H](C(=O)N[C@@H](CCCNC(=N)N)C(=O)N[C@@H](CCCCN)C(=O)N[C@@H](C)C(=O)N[C@@H](CCC(N)=O)C(=O)N[C@@H](CCC(=O)O)C(=O)N[C@@H](CCC(N)=O)C(=O)N[C@@H](CCC(N)=O)C(=O)N[C@@H](CCC(=O)O)C(=O)N[C@@H](CCCCN)C(=O)N[C@@H](CC(N)=O)C(=O)N[C@@H](CCC(=O)O)C(=O)N[C@@H](C)C(=O)N[C@@H](C)C(=O)N[C@@H](CC(C)C)C(=O)N[C@@H](CCCNC(=N)N)C(N)=O)[C@@H](C)CC)[C@@H](C)CC) [Peptide 52] | 38 | 1 nM | 2
SUC-ACYLACIDELIAKAQEQQEKNEAALR-NH2 (Suc-ACYLACIDELIAKAQEQQEKNEAALR-NH2; cysteine pairing not given here) [Peptide 36] | 373 | 2 nM | 0.4
SUC-ACYLACIDELIKKAQEQQEKNEAALR-NH2 (Suc-ACYLACIDELIKKAQEQQEKNEAALR-NH2; cysteine pairing not given here) [Peptide 30] | 145 | 1 nM | 0.5
SUC-CYLACIEALIRAAQEQQEKNEAALR-NH2 (Suc-CYLACIEALIRAAQEQQEKNEAALR-NH2; cysteine pairing not given here) [Peptide 26] | 311 | 1 nM | 1
SUC-ECYLACIEALIRAAQEQQEKNEAALR-NH2 (Suc-ECYLACIEALIRAAQEQQEKNEAALR-NH2; cysteine pairing not given here) [Peptide 33] | 269 | 1 nM | 0.6
Suc-ACYLACIEALIRAAQEQQEKNEAALR-NH2 (cysteine pairing not given here) [Peptide 43] | 103 | 2 nM | 1
Suc-ACYLACIEELIRKAQEQQEKNEAALr-NH2 [Peptide 34] | 265 | 2 nM | 0.3
